Data: ChEMBL document CHEMBL1201862, “PubChem BioAssay data set” (2004)
Calls of active or inactive are those of the source.

Assays:
Coagulation factor XII = target: T1, Coagulation factor XII (Homo sapiens, UniProt P00748); assay type: functional;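 further: activated factor XIIa alpha cleaving a fluorogenic AMC peptide substrate; inhibitor potency from loss of enzyme activity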
T1 sequence (P00748 whole entry): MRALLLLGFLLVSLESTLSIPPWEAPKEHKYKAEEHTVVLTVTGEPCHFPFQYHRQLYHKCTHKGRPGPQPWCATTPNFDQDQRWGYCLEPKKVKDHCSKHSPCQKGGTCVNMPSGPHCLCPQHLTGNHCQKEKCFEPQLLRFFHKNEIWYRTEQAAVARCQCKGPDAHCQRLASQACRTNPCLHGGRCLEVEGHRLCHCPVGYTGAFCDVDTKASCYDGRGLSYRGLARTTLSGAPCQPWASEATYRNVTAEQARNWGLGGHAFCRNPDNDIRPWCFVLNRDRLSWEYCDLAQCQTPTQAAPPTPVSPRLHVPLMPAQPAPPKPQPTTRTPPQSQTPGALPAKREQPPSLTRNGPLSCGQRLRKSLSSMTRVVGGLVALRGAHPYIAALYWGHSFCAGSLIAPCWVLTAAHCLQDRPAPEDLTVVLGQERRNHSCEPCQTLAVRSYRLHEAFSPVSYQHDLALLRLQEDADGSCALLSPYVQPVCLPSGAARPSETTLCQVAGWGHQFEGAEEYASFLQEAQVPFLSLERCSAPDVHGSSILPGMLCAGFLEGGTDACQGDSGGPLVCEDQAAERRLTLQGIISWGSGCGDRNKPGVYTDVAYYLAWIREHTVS

[1] = blockers of HIV-1 envelope-mediated cell-cell fusion – cherry-pick, dose response (AID 652057); assay type: functional, cell-based
[2] = blockers of HIV-1 ZM109 envelope-driven cell-cell fusion – HeLa effector, CEM target cells, luciferase, cherry-pick, dose response (AID 652058); assay type: functional, cell-based;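 further: luciferase signal from HIV-1 Env mediated cell-cell fusion of effector and target cells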
[3] = off-target signal loss in HeLa-CEM21 co-culture – HeLa F-luc CTL cells, cherry-picked, counter-screen for HIV-1 Env fusion inhibitor project, dose response (AID 652040); assay type: functional, cell-based;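 further: potency for signal decrease marking cytotoxic or nonspecific inhibition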
[4] = HIV-1 AD8 envelope cell-cell fusion blockers – cherry-pick, dose response (AID 652062); assay type: functional, cell-based;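 further: luciferase signal from cell-cell fusion driven by HIV-1 clade B AD8 Env; potency is for inhibitors of fusion seen as a drop in luminescence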
[5] = tested on: Streptococcus sp. 'group A'; test: Streptococcus pyogenes SK(-)GAS viability under kanamycin – luminescence, BacTiterGlo, confirmation, counter-screen for streptokinase expression inhibitor project, dose response (AID 1900); assay type: functional, organism-based
Streptokinase A = target: T2, Streptokinase A (Streptococcus pyogenes serotype M1, UniProt P10520); test: viability-normalized secreted streptokinase activity reduction – plasminogen activation absorbance, OD405, dose response (AID 1914); assay type: functional, Streptococcus pyogenes M1 GAS;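 further: secreted streptokinase activity via plasminogen activation per viability signal from cell pellet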
T2 sequence (P10520 whole entry): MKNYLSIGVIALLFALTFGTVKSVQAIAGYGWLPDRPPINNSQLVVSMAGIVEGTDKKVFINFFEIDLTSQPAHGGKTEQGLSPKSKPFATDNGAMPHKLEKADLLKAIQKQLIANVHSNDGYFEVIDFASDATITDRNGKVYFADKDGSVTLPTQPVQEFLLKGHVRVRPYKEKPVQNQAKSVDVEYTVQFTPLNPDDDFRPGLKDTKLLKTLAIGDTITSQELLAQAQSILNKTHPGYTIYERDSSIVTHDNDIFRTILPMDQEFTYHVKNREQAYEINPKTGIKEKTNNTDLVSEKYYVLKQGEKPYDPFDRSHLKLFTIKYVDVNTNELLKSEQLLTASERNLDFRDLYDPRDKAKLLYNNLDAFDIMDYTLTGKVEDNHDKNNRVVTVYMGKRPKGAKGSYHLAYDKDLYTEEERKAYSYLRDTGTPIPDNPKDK

Streptococcus = test: GAS UMAA2166 growth inhibition – luminescence, BacTiterGlo, counter-screen for streptokinase expression inhibitor project, dose response (AID 1915); assay type: functional, organism-based;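 further: potency for reduction of bacterial viability or growth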
Beta-galactosidase [6] = target: T3, Beta-galactosidase (Escherichia coli, UniProt Q8VNN2); test: PubChem AID 485352; assay type: functional
T3 sequence (Q8VNN2 whole entry): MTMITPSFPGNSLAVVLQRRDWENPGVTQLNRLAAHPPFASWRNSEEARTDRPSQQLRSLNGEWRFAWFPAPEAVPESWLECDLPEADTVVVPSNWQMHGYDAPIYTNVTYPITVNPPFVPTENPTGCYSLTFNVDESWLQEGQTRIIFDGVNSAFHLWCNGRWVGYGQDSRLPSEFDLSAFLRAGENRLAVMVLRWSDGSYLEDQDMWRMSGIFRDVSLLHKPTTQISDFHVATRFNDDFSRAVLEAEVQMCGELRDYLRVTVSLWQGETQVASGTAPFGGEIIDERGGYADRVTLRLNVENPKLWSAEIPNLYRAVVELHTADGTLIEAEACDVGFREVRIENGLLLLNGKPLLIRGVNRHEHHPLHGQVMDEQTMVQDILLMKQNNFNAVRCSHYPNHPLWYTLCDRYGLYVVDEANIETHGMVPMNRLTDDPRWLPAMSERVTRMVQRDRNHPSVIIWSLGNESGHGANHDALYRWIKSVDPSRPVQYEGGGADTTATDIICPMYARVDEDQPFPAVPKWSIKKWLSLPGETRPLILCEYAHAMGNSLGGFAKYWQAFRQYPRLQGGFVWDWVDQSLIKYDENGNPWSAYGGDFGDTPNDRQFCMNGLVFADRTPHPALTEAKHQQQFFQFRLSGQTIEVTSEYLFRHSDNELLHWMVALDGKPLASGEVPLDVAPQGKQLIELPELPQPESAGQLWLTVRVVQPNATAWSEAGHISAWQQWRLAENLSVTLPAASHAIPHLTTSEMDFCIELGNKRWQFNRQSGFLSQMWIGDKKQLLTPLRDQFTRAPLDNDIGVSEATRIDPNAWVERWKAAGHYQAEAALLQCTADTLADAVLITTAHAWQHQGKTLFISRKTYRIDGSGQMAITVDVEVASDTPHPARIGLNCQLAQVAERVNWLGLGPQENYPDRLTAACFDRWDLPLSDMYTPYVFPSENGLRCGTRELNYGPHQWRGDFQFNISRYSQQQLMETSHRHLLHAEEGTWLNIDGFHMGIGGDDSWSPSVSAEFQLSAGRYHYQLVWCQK

[7] = target: T4, Type-1 angiotensin II receptor (Homo sapiens, UniProt P30556); test: antagonism of angiotensin II type 1 receptor – cell-based, uHTS hits, selectivity assay for APJ receptor antagonist project, dose response (AID 463214); assay type: functional;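 further: antagonist potency against angiotensin II stimulated AT1 response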
T4 sequence (P30556 whole entry): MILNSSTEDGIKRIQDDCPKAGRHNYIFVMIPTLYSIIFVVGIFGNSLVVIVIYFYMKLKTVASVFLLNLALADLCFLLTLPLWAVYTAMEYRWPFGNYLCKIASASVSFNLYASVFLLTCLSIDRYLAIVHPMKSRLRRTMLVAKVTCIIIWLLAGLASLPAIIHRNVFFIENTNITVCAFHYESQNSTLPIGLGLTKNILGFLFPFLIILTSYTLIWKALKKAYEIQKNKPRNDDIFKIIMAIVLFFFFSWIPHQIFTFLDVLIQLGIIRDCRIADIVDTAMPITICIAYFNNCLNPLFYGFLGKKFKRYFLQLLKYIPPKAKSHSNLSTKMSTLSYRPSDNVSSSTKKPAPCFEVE

[8] = target: T5, Histone-lysine N-methyltransferase NSD2 (Homo sapiens, UniProt O96028); assay type: biochemical
T5 sequence (O96028 whole entry): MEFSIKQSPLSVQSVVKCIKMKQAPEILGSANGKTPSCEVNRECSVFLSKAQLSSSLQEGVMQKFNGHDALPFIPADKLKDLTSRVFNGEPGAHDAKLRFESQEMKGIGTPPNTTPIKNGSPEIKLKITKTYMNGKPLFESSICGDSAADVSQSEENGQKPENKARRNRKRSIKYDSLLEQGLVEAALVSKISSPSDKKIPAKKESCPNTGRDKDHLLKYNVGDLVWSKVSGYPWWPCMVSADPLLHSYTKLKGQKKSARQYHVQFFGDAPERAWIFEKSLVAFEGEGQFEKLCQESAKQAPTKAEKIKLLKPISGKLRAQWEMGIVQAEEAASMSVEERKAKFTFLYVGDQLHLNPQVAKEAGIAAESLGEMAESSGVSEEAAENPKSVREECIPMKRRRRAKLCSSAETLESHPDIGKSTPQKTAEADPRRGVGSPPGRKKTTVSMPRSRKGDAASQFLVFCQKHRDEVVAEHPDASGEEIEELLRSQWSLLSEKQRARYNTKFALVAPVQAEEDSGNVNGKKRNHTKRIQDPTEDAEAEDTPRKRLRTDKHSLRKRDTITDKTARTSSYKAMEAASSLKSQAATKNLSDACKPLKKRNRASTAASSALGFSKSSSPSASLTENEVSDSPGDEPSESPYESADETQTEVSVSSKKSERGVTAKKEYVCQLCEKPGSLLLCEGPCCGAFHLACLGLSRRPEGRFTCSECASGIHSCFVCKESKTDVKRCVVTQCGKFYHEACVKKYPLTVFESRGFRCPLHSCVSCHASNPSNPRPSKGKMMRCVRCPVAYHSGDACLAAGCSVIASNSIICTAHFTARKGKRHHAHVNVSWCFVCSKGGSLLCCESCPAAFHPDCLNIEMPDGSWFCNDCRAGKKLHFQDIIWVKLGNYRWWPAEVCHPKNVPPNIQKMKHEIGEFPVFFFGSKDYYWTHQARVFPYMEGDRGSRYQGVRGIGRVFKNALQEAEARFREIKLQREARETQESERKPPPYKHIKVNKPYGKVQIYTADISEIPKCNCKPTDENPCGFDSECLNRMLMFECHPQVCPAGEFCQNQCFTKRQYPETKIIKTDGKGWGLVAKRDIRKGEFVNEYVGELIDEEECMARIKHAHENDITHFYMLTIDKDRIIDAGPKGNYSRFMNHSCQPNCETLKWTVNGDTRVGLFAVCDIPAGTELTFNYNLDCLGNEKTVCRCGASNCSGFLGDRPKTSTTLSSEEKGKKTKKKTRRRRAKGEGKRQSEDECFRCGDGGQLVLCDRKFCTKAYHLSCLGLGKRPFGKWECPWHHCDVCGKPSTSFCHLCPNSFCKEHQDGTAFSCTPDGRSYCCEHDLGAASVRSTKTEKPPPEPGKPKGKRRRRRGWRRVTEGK

[9] = Trypanosoma cruzi growth suppression in host cells – NIH3T3 host cells, beta-gal luminescence, confirmation (AID 2044); assay type: functional, cell-based;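 further: intracellular parasites grown in NIH/3T3 mouse fibroblasts as host cells; luminescent beta-galactosidase reporter signal from transgenic T. cruzi replicating inside host cells; inhibitors lower the luminescence signal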
[10] = HEK-293T cell viability reduction – luminescence, B-cell screen hits, cytotoxicity control for BCR NF-kB inhibitor project, dose response (AID 489021); assay type: functional, cell-based;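 further: HEK-293T cells carrying an NF-kB luciferase reporter; cells exposed to compound for about 14 hours before viability readout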
Beta-galactosidase [11] = target: T3, Beta-galactosidase; test: Dose response counterscreen for EBI2 assay utilizing the enzyme, b-galactosidase.; assay type: functional
cells [12] = assay type: functional, cell-based
cells [13] = assay type: functional, cell-based; remark: listed apart in the source

## CCN1C(=O)/C(=C\c2ccco2)C(C(=O)OC)=C1C
Coagulation factor XII
  IC50: > 50 µM (inactive)

## COc1cccc(-c2noc(C3CCCN(S(=O)(=O)c4cccc(Cl)c4C)C3)n2)c1 (stereo not given)
[1]
  AC50: 6.22 µM (active)
[2]
  AC50: 10.9 µM (active)
[3]
  AC50: 16.5 µM (active)
[4]
  AC50: 11.9 µM (active)

## Cc1ccc(Cn2cc(/C=N/NC(=O)Cc3nnc(NC(=O)c4ccc(C)cc4)s3)c3ccccc32)cc1
[5]
  EC50: 2.5 µM (active)
Streptokinase A
  EC50: > 150 µM (not active)
Streptococcus
  EC50: 36.9 µM (active)
Coagulation factor XII
  IC50: > 50 µM (inactive)

## CCOC(=O)c1c(O)c2cc(Cl)ccc2n(CC)c1=O
Coagulation factor XII
  IC50: > 50 µM (inactive)

## O=[N+]([O-])c1cccc(/C=N/NS(=O)(=O)c2ccccc2)c1
Beta-galactosidase [6]
  EC50: > 40 µM (inactive)
[7]
  IC50: 24.3 µM (not active)

## COc1cccc(NC(=O)Nc2cccnc2)c1
Coagulation factor XII
  IC50: > 50 µM (inactive)

## Cc1cc2ccccn2c1C(=S)NC(=O)c1ccccc1
[8]
  AC50: > 20 µM (inactive)

## Cc1ccc2c(c1)nnn2C1CCN(CC(=O)NCCc2nc3ccccc3[nH]2)CC1
Beta-galactosidase [6]
  EC50: > 40 µM (inactive)
[7]
  IC50: > 40 µM (not active)

## Cc1ccc(Nc2nc(N/N=C\c3ccc4c(c3)OCO4)nc(N3CCOCC3)n2)cc1
[5]
  EC50: 21.8 µM (active)
Streptokinase A
  EC50: 111 µM (active)
[9]
  EC50: 0.393 µM (active)
Streptococcus
  EC50: > 150 µM (not active)
[10]
  IC50: 63.2 µM (inactive)

## O=C(/C=C/c1ccc([N+](=O)[O-])cc1)N1CCN(S(=O)(=O)c2ccccc2)CC1
Beta-galactosidase [11]
  IC50: > 80 µM (inactive)

## Cc1ccc(OCC(=O)N2CCN(S(=O)(=O)c3ccc4c(c3)OCCO4)CC2)c(C)c1
Beta-galactosidase [11]
  IC50: > 80 µM (inactive)

## COc1cc(/C=N/CC2OCCc3ccccc32)cc(OC)c1 (stereo not given)
Cells [12]
  IC50: > 29.9 µM (inactive)
Cells [13]
  EC50: > 29.9 µM (inactive)
